Results as given in patent publication US11517575B2, “Use of minaprine to reduce tumor growth” (Institut Gustave-Roussy, priority 2019, dated 2022).

Tests used:
CT26 cells = assay: Anti-tumor vaccination assay, CT26 cells in BALB/c mice; format: in vivo, mouse; settings: for frequency of mice showing a protective response: 8 Gy + 10 μM compound 24 h
Protocol: FIG. 5. Identification of cannibalism modulators as immunogenic cell death inducers. MCA205 (A) or CT26 (E, I, M, Q) cells were treated with the indicated drugs. After 24 h of coculture with the indicated treatment, cell death was monitored by staining DiOC6(3) and PI, and the percentage of dying (DiOC6(3)^low PI^−, open bars) and dead (DiOC6(3)^low PI^+, closed bars) cells was determined by cytofluorometry. (B-D) MCA205 cells or (F-H, J-L, N-P, R-T) CT26 cells cocultured after x irradiation with the indicated compounds were inoculated subcutaneously into the right flank of […] or BALB/c mice, respectively. Seven days later, the mice were rechallenged with live cells injected into the opposite flank, and tumor growth was monitored (five mice per group).
FIG. 6. Tumor vaccination experiments. CT26 cells were treated for 24 hours with 10 μM VP331 (A, F, K), 10 μM Minaprine (B, G, L), 10 μM Lopa87 (C, H, M), 10 μM SG6163F (D, I, N), 10 μM Azaguanine-8 (8-aza) (E, J, O) alone or combined with 8 Gy ionizing radiation and inoculated (s.c.) into immunocompetent BALB/c mice, which were rechallenged at the opposite flank 7 days later with the same cancer cells. The percentage of tumor-free mice was evaluated three times a week for the following 38 days. Percentage of total tumor free mice (A-E), tumor free-mice at the first injection site (F to J, P) or at the second injection site (K to O, Q) are shown. (*P<0.05, **P<0.01, ***P<0.001, two-way ANOVA).
The combination of IRCCE with IR induces efficient antitumor immunity. Considering that immunogenic cell death (ICD) inducers were identified (such as Digoxin, Digitoxin, Lanatoside C or Doxorubicin hydrochloride)^3, 4, 48-51) as IRCCE, the ability of these compounds to induce an antitumor immunity after radiotherapy was evaluated. First, a preclinical approaches was developed to study the immunological effects of IRCCE on two mouse models of carcinoma (colon CT26 carcinoma and fibrosarcoma MCA205). Initially, the ability of the combination of IRCCE+IR to trigger a specific anti-tumor immune response was appreciated using immunocompetent mice through anti-tumor vaccination assays. According to previously published studies^52, the injection of cancer cells succumbing to an immunogenic cell death (ICD) into immunocompetent mice must elicit a protective immune response that is specific for tumor antigens. Thus, 3×10^5 MCA205 cells were first treated with 10 μM of SG6163F for 24 hours. Then, treated cells were inoculated subcutaneously in 200 μl PBS into the lower flank of 8-week-old female C57BL/6 mice. One week later, 3×10^4 untreated control cells were inoculated into the contralateral flank of mice. Tumors were evaluated weekly using a common caliper. Animals bearing tumors that exceeded 20-25% body mass were euthanatized. […] Then, 3×10^6 CT26 cells were irradiated with 8 Gy in presence of 10 μM of SG6163F (FIGS. 5E and 5F), VP331 (FIGS. 5I and 5J), Minaprine dihydrochloride (FIGS. 5M and 5N) or LOPA87 (FIGS. 5Q and 5R) for 24 hours. Then, cells were inoculated as previously described subcutaneously in […] into the lower flank of 8-week-old female BALB/c mice. One week later, 5×10^5 untreated control cells were inoculated into the contralateral flank of mice and tumors were evaluated weekly using a common caliper. As previously mentioned, animals bearing tumors that exceeded 20-25% body mass were euthanatized. The percentage of dying cells in each condition was evaluated by determining with DiOC(6)3/IP staining (FIGS. 5E, 5I, 5M and 5Q). Finally, the ability of these compounds to repress the growth of cancer cells that have been injected 7 days after injection of irradiated and treated cancer cells was appreciated.
A second anti-tumor vaccination assay was done on CT26 mouse models of carcinoma as previously described. […]

CT26 tumor cells = assay: Tumor growth in immunocompetent mice after intratumoral or intraperitoneal injection; format: in vivo, mouse; settings: Balb/c mice
Protocol: FIG. 7. Minaprine reduces tumor growth in immunocompetent mice after intratumoral or intraperitoneal injections. (A-C) 3 10^6 CT26 cells were implanted in immunocompetent BALB/c mice. Palpable tumors were injected with 10 μM Minaprine (or control) after 6 days. The tumor growth volume was then determined three times a week for the following 38 days (A and B). The percentage of mice survival was also determined (C). (D-I) 5 10^5 CT26 cells were implanted in immunocompetent BALB/c mice. After 12 days, tumor bearing mice were intraperitoneally injected with control (D and I), 0.3 mg/kg (E and I), 1 mg/kg (F and I), 3 mg/kg (G and I) or 10 mg/kg (H and I) of Minaprine. Tumor growth volumes (A-J) and fold change in the tumor volumes after intraperitoneal injection (D-I) were analyzed. Tumor growth volumes were the determined three times a week for the following 38 days.
For intratumoral injection, 3 10^6 Balb/c-derived CT26 tumor cells were subcutaneously implanted in 8 week-old Balb/c mice (Janvier Laboratories). After 6 days, 10 μM of Minaprine or control phosphate buffer saline (PBS) was injected into tumors (20 μl) and tumor volume was evaluated 3 times a week. For intraperitoneal injection, 5 10^5 Balb/c-derived CT26 tumor cells were subcutaneously implanted in 8 week-old Balb/c mice (Janvier Laboratories). After 12 days, tumor-bearing mice were intraperitonealy injected with different concentrations of Minaprine (0.3, 1, 3 and 10 mg/kg) or PBS. Tumor volume was also evaluated 3 times a week. The experiments were randomized, performed in compliance with the EU Directive 63/2010 and approved by Ethical Committee at Gustave Roussy Cancer Campus (CEEA IRCIV/IGR n^o26).
No statistical methods or criteria were used to estimate sample size or to include/exclude samples. The investigators were not blinded to group allocation during experiments and outcome assessment. Results are expressed as mean value SEM. To determine statistical significance, Two-way ANOVA (FIG. 7A) and Log rank (Mantel-Cox) (FIG. 7I) tests were used for calculation of P values. Prism 6 Software was used for the generation of survival graphs and statistical significance. Statistical significance was given as **p value<0.01 or *p value<0.05.
We first subcutaneously implanted 3 10^6 Balb/c-derived CT26 colon cancer cells in immunocompetent Balb/c mice. After 6 days, tumor-bearing mouse were randomized and 10 μM of Minaprine (3 mg/kg) was injected into tumors. Tumor growth was analyzed during 38 days.
We next determined whether intraperitoneal injections of Minaprine could also impact tumor growth. Thus, 5 10^5 Balb/c-derived CT26 cells were implanted into immunocompetent Balb/c mice. After 12 days, tumor-bearing mice were randomized, intraperitoneally injected with control (FIGS. 7D and 7I) or with Minaprine at different concentrations (FIGS. 7E-7I).

Cc1cc(-c2ccccc2)nnc1NCCN1CCOCC1.Cl.Cl [Minaprine dihydrochloride]
frequency of mice showing a protective response (CT26 cells; first assay: CT26 cells, rechallenge one week later): significant increase in the frequency of mice showing a protective response | protective response after injection of cancer cells (CT26 cells; second assay: CT26 cells treated with 10 μM compound alone (no IR)): induce an increase of protective response | frequency of mice showing a protective response (CT26 cells; second assay: CT26 cells, rechallenge 7 days later): Significant increases in the frequency of mice showing a protective response | tumor growth (CT26 tumor cells; intraperitoneal injection 1 mg/kg 12 days after implant of 5 10^5 CT26 cells): significantly decreased the growth of treated tumors | tumor growth (CT26 tumor cells; intraperitoneal injection 3 mg/kg 12 days after implant of 5 10^5 CT26 cells): significantly decreased the growth of treated tumors | tumor growth (CT26 tumor cells; intraperitoneal injection 10 mg/kg 12 days after implant of 5 10^5 CT26 cells): significantly decreased the growth of treated tumors | tumor growth (CT26 tumor cells; intratumoral injection 3 mg/kg (10 μM) 6 days after implant of 3 10^6 CT26 cells, followed 38 days): significantly decreases the growth of tumors | survival of treated mice (CT26 tumor cells; intratumoral injection 3 mg/kg, CT26 tumors, versus untreated control): increase survival
